Two compounds from patent US20230210113A1, “FUNGICIDAL COMPOSITIONS” (SYNGENTA CROP PROTECTION AG, priority 2020, published 2023) can be followed below.

A word on the inhibition: it is the drop in the measured response relative to a control, in per cent.

For one experiment, the system named is Botrytis cinerea. The experiment is described as follows: Liquid culture test in well plates, Botrytis cinerea (gray mould), growth inhibition. Type of experiment: cell-based. To be noted: 72 hours, 24° C. The protocol:
(§1) Mycelia fragments or conidia suspensions of a fungus, prepared either freshly from liquid cultures of the fungus or from cryogenic storage, are directly mixed into nutrient broth. DMSO solutions of the test compound (max. 10 mg/mL) is diluted with 0.025% Tween20 by factor 50 and 10 µL of this solution is pipetted into a microtiter plate (96-well format). […] The test plates are incubated in the dark at 24° C. and 96% relative humidity (rh). The inhibition of fungal growth is determined photometrically and visually after 3 - 7 days, depending on the pathosystem, and percent antifungal activity relative to the untreated check is calculated.
Conidia of the fungus from cryogenic storage were directly mixed into nutrient broth (PDB potato dextrose broth). After placing a DMSO solution of the test compositions into a microtiter plate (96-well format), the nutrient broth containing the fungal spores was added.

The subject of another experiment is Alternaria solani. The experiment can be described thus: Liquid culture test in well plates, Alternaria solani (early blight of tomato/potato), growth inhibition. Type of experiment: cell-based. To be noted: 48 hours, 24° C. How it is done: as §1
Conidia of the fungus from cryogenic storage were directly mixed into nutrient broth (PDB potato dextrose broth). After placing a DMSO solution of the test compositions into a microtiter plate (96-well format) the nutrient broth containing the fungal spores was added.

With `O=C1c2ccccc2C(=O)N1SC(Cl)(Cl)Cl` [Folpet, folpet, reference compound], the inhibition at 0.25 ppm in the experiment with Botrytis cinerea (Botrytis cinerea, Folpet 0.25 ppm alone, read-out: (B) inhibition (%)) was found to be 21%; in the experiment with Alternaria solani (Alternaria solani, Folpet 0.25 ppm alone, read-out: (B) inhibition (%)) it was 3%. Also, the inhibition at 0.5 ppm in the experiment on Botrytis cinerea (Botrytis cinerea, Folpet 0.50 ppm alone, read-out: (B) inhibition (%)) worked out at 44%. The inhibition at 1 ppm in the experiment with Botrytis cinerea (Botrytis cinerea, Folpet 1.00 ppm alone, read-out: (B) inhibition (%)) was 78%.

Consider Aureobasidin A, for which the “(A) inhibition (%)” value in the experiment on Botrytis cinerea (Aureobasidin A 0.0012 ppm alone) amounted to 6%; in the experiment on Botrytis cinerea (Aureobasidin A 0.0025 ppm alone), 6%; in the experiment with Botrytis cinerea (Aureobasidin A 0.0050 ppm alone), 4%; in the experiment on Botrytis cinerea (Aureobasidin A 0.0100 ppm alone), 34%; with Botrytis cinerea (Aureobasidin A 0.0200 ppm alone), 41%; in the experiment with Alternaria solani (Aureobasidin A 0.02 ppm alone) it was 24%.
